Tests used:
[1] = Pharmacokinetics: clearance of p52 from the blood of mice; type: in vivo, mouse; conditions: LC-MS, n=6/group
Method: Supplemental Figure 2 . Quality analysis, in v itro potency, and clearance from the blood of mice for p52. A Analytical RP-HPLC spectrum for p52 was recorded using an Agilent 1260 Infinity system. B Spectrographic data from the analysis of purified p52 by single quadrupolar LC/MS using a Waters Mass Lynx 3100 platform. C Peptide in vitro potencies determined in CHO cells transfected with mouse GPR10 or GPR74 receptor.
For GPR74 potency was determined for peptide mediated inhibition of forskolin stimulated cAMP accumulation, as described (48). For GPR10 potency was determined in calcium mobilization assay in cells incubated with FLuo- 4AM calcium assay kit and measured on a FLIPR TETRA (Molecular Devices, Sunnyvale, CA). Shown are log(1/EC50) (1/nM) values for cAMP generation via GRP10 and GPR74 for p52, PrRP-31, and NPFF. ND- not detected. D Mice were injected with the indicated doses of p52.
Blood was drawn at the indicated times after dosing and p52 was quantified by LC-MS.
Shown are mean +/- STD; individual measurements are shown, as well; n=6/group. ND - […]
(1 picture or pasted object on this page, not shown here)

GPR147 = conditions: cited from earlier work
Excerpt: Thus, PrRP analogs like p52 might act via GPR147 to decrease food intake. It is not clear whether p52 and other PrRP analogs can suppress food intake via GRP10 and/or GPR74 in the absence of GPR147, but it would be interesting to assess this possibility, as well as potential roles for each of these rece ...

Compound	p52 detectable in the circulation for at least 4 h ([1]; dose 1.5 mg/kg)	time p52 remained detectable in the circulation ([1]; dose 5 mg/kg)	affinity for GPR147 (GPR147)
CCCCCCCCCCCCCCCC(=O)N[C@@H](CO)C(=O)N[C@@H](CCCNC(=N)N)C(=O)N[C@H](C(=O)N[C@@H](Cc1c[nH]cn1)C(=O)N[C@@H](CCCNC(=N)N)C(=O)N[C@@H](Cc1c[nH]cn1)C(=O)N[C@@H](CO)C(=O)N[C@@H](CCCC)C(=O)N[C@@H](CCC(=O)O)C(=O)N[C@H](C(=O)N[C@@H](CCCNC(=N)N)C(=O)N[C@H](C(=O)N1CCC[C@H]1C(=O)N[C@@H](CC(=O)O)C(=O)N[C@H](C(=O)N[C@@H](CC(N)=O)C(=O)N1CCC[C@H]1C(=O)N[C@@H](C)C(=O)N[C@@H](Cc1c[nH]c2ccccc12)C(=O)N[C@@H](Cc1ccc(O)cc1)C(=O)N[C@@H](C)C(=O)N[C@@H](CO)C(=O)N[C@@H](CCCNC(=N)N)C(=O)NCC(=O)N[C@H](C(=O)N[C@@H](CCCNC(=N)N)C(=O)N1CCC[C@H]1C(=O)N[C@H](C(=O)NCC(=O)N[C@@H](CCCNC(=N)N)C(=O)N[C@@H](Cc1ccc([N+](=O)[O-])cc1)C(N)=O)C(C)C)[C@@H](C)CC)[C@@H](C)CC)[C@@H](C)O)[C@@H](C)CC)[C@@H](C)O [p52]	not	at least 4 h	–
prolactin releasing peptide [PrRP]	–	–	measurable (albeit low) affinity

Reference: article PMC11773474, “Roles for Prlhr/GPR10 and Npffr2/GPR74 in feeding responses to PrRP” (Molecular Metabolism, 2025)
